{
  "source": "paper PMC12889028",
  "about": "“Discovery and biological evaluation of novel N-aryl-N′-methylbenzodrazides against Schistosoma japonicum in vitro and in vivo” (Microbiology Spectrum, 2025)",
  "key": {"[1]": {"tested_on": "adult worms of S. japonicum (Chinese strain)", "experiment": "microbe, parasite or virus in culture", "details": "for mortality at 100 µM / LC50: Schistosoma japonicum; for LC50: read-out: LC50 (72 h)", "procedure": "S. japonicum cercariae (Chinese strain) were acquired from infected Oncomelania hupensis snails (Wuxi Insect Vector Biology Co., Ltd., China) ([28]). ICR mice (6–8 weeks, 22–25 g; Hunan SJA Laboratory Animal Co., Ltd., China) were percutaneously infected via abdominal exposure to 60 ± 5 cercariae. Adult schistosomes were perfused from the hepatic portal system at 35 dpi using a modified Duvall and DeWitt method ([29]). Animals were housed under controlled conditions (22°C ± 1°C, 12 h light/dark cycle) with ad libitum access to feed and water.\nAdult S. japonicum worms isolated from ICR mice were maintained in sterile culture medium (2.0 mL) comprising 77% RPMI 1640 (Lanzhou Bailing Biotech Co., Ltd.; pH 7.5, HEPES-buffered), 20% heat-inactivated fetal bovine serum (Lanzhou Minhai Bio-Engineering Co., Ltd.), and 3% penicillin-streptomycin (100×; 10,000 U/mL penicillin, 10,000 μg/mL streptomycin; New Cell & Molecular Biotech Co., Ltd., China). Incubation was performed at 37°C under 5% CO2. Test compounds were dissolved in DMSO as 0.1 M stock solutions; 2.0 μL aliquots were added to worm-containing media (final concentration: 100 μM in 0.1% DMSO). Negative controls received equivalent volumes of vehicle (0.1% DMSO in RPMI 1640). Parasite viability (motor activity, tegumental integrity, survival) was assessed every 12 h for 72 h using an Olympus CKX53 inverted microscope (n ≥ 3 independent replicates)."}, "[2]": {"tested_on": "S. japonicum (Chinese strain)", "experiment": "In vivo antischistosomal assay in infected mice (worm burden, worm morphology, liver eggs)", "design": "species or system Schistosoma japonicum in ICR mice", "details": "mice, oral 100 mg/kg/day for 5 days; for Number of worms, Adult: adult stage (treatment from 35 dpi, sacrifice 45 dpi); for Worm burden reduction (WBR), Juvenile: juvenile stage (from 9 dpi); for Number of worms, Juvenile: juvenile stage (treatment from 9 dpi, sacrifice 45 dpi)", "procedure": "(§1) Lead compounds 5, 18, and 41 (100 mg/kg) were orally administered once daily for 5 consecutive days to infected mice (n = 6/group) during two therapeutic windows: (i) Juvenile stage: treatment initiated at 9 dpi, terminal sacrifice at 45 dpi; (ii) adult stage: treatment initiated at 35 dpi, terminal sacrifice at 45 dpi. Positive controls received praziquantel (PZQ, 100 mg/kg/day ×5 days); negative controls received PBS (0.3 mL). Mice treated at 9 dpi were euthanized 36 days post-treatment; those treated at 35 dpi were euthanized 10 days post-treatment. Adult worms were perfused from the hepatic portal system and mesenteric veins. Parasite burden was quantified by worm enumeration, and worm burden reduction (WBR) was calculated:\nWBR (%)=[1−Mean worm count (treated) / Mean worm count (control)]×100% ."}, "[3]": {"experiment": "Serum hepatic/renal function profiling of infected, treated mice", "format": "in vivo, ICR mice", "details": "for Serum GGT: normal range 1–15 U/L; for Serum TBIL: normal range 1.7–15.4 µM; for Serum BUN: normal range 4.9–10.4 mM; for Serum ALT: normal range 28–132 U/L; for Serum AST: normal range 59–247 U/L", "procedure": "Following maturation, Schistosoma parasites initiate oviposition, with a proportion of eggs migrating via the circulatory system to hepatic tissues. This ectopic deposition induces granuloma formation that subsequently elicits a cascade of immune-mediated pathologies, ultimately compromising hepatic and renal functions in murine models. To evaluate therapeutic efficacy, retro-orbital blood sampling was performed for comprehensive hepatic function profiling, enabling systematic assessment of pharmacological impacts on schistosomiasis-associated organ damage.\nas §1, with “calculated: […]” for “calculated:”"}, "[4]": {"tested_on": "HepG2 (human liver cancer) cells", "experiment": "Cytotoxicity MTT assay, HepG2", "format": "cell-based", "details": "Homo sapiens, HepG2, 48 h incubation", "procedure": "(§2) The cytotoxicity of compounds 5, 18, and 41 against human liver cancer (HepG2) and human breast cancer (MCF-7) cell lines in vitro was evaluated using the MTT assay, with cisplatin as a positive control. Cells were plated into 96-well plates and incubated in 100 μL of Dulbecco’s modified Eagle’s medium for 24 h. Test compounds at specified final concentrations were then added to the culture medium. After 48 h incubation, MTT dye (10 μL, 0.5 mg/mL) was added, and cells were incubated for an additional 4 h at 37°C in 5% CO2. Formazan crystals were dissolved in 100 μL DMSO per well, and absorbance at 570 nm (OD570) was measured using an ELx800 microplate reader (Bio-Tek, Winooski, VT, USA) with background subtraction. Cytotoxicity was expressed as IC50 (the concentration causing 50% reduction in cell growth compared to untreated controls). Experiments were performed in triplicate, with results presented as mean ± standard deviation."}, "adult S. japonicum worms": {"tested_on": "adult S. japonicum worms", "experiment": "SEM examination in vitro of tegumental damage", "format": "cell-based, Schistosoma japonicum", "details": "100 μM", "procedure": "Adult S. japonicum worms (male/female) underwent standardized fixation after in vitro exposure to compounds 5, 18, and 41 over a period of 12 h. First, the samples were immersed in 2.5% glutaraldehyde (prepared with 40 mL 0.2 M phosphate-buffered saline [PBS, pH 7.4], 5 mL 50% glutaraldehyde stock, and 55 mL ultrapure water) at 4°C for 24 h. After triple washes in PBS for 5 min each, worms were rinsed with deionized water for 10 min. The next dehydration sequence included ethanol gradient (50%, 70%, 80%, 90%, 100%; 5 min/step) and tert-butanol gradient (50%, 70%, 90%, 100%; 10 min/step). The worms were freeze-dried, directly sputter-covered with a thin gold layer using a Sputter Coater, and imaged using a scanning electron microscope (Quanta 450)."}, "healthy mice": {"tested_on": "healthy mice", "experiment": "Acute oral toxicity", "format": "in vivo", "details": "single oral dose, healthy ICR mice", "procedure": "(§3) ICR mice (n = 10/group), aged 6 to 8 weeks, received a single oral dose of compounds 5, 18, and 41 (732–2,234 mg/kg). LD50 values were determined by Probit analysis (SPSS 26.0)."}, "Acute oral toxicity": {"experiment": "Acute oral toxicity", "format": "in vivo", "details": "ICR, mouse, in vivo, po, single oral dose, healthy ICR mice", "procedure": "as §3"}, "[5]": {"tested_on": "MCF-7 (human breast cancer) cells", "experiment": "Cytotoxicity MTT assay, MCF-7", "format": "cell-based", "details": "Homo sapiens, MCF7, 48 h incubation", "procedure": "as §2"}, "Schistosoma mansoni": {"tested_on": "Schistosoma mansoni", "design": "method as in PMID 25583726", "details": "S. mansoni mouse model; cited from earlier work"}, "[6]": {"details": "24 h, read-out: Mortality (%) 24 h, 100 μM, 24 h, adult worms in vitro"}, "[7]": {"details": "36 h, read-out: Mortality (%) 36 h, 100 μM, 36 h, adult worms in vitro"}, "[8]": {"details": "48 h, read-out: Mortality (%) 48 h, 100 μM, 48 h, adult worms in vitro"}, "[9]": {"details": "72 h, read-out: Mortality (%) 72 h, 100 μM, 72 h, adult worms in vitro"}, "[10]": {"details": "infected mice treated in adult stage"}, "[11]": {"details": "infected mice treated in juvenile stage"}},
  "note": "Read-outs that look alike come from different tables or passages of the source.",
  "data": [
    {"molecule": "CN(NC(=O)c1ccc(Cl)c(Cl)c1)c1ccc(Br)cc1", "note": "[Compound 5]", "values": [
      {"measurement": "Mortality (%) 72 h", "setting": "[1]; 100 μM, 72 h, adult worms in vitro", "value": 100, "unit": "%"},
      {"measurement": "mortality at 100 µM", "setting": "[1]; [6]", "value": 35, "unit": "%"},
      {"measurement": "mortality at 100 µM", "setting": "[1]; [7]", "value": 65, "unit": "%"},
      {"measurement": "mortality at 100 µM", "setting": "[1]; [8]", "value": 95, "unit": "%"},
      {"measurement": "LC50", "setting": "[1]; 72 h", "value": "80.2 ± 1.8", "unit": "µM"},
      {"measurement": "mortality at 100 µM", "setting": "[1]; [9]", "value": "> 80", "unit": "%"},
      {"measurement": "Morphology of worms after treatment in vivo, adult stage", "setting": "[2]; adult stage", "value": "making the males thicker and shorter"},
      {"measurement": "Worm burden reduction (WBR), Adult", "setting": "[2]; adult stage (from 35 dpi), 100 mg/kg/day", "value": 34, "unit": "%"},
      {"measurement": "Number of worms, Adult", "setting": "[2]", "value": 29},
      {"measurement": "Morphology of worms after treatment in vivo, juvenile stage", "setting": "[2]; juvenile stage", "value": "marked stunting of male schistosomes"},
      {"measurement": "Worm burden reduction (WBR), Juvenile", "setting": "[2]; 100 mg/kg/day", "value": 25, "unit": "%"},
      {"measurement": "Number of worms, Juvenile", "setting": "[2]", "value": 30},
      {"measurement": "Serum GGT", "setting": "[3]; [10]", "value": "0.73 ± 0.40", "unit": "U/L"},
      {"measurement": "Serum TBIL", "setting": "[3]; [10]", "value": "6.70 ± 3.39", "unit": "µM"},
      {"measurement": "Serum BUN", "setting": "[3]; [10]", "value": "8.80 ± 0.96", "unit": "mM"},
      {"measurement": "Serum ALT", "setting": "[3]; [10]", "value": "313.33 ± 166.21", "unit": "U/L"},
      {"measurement": "Serum AST", "setting": "[3]; [10]", "value": "527.33 ± 303.66", "unit": "U/L"},
      {"measurement": "Serum GGT", "setting": "[3]; [11]", "value": "0.73 ± 0.06", "unit": "U/L"},
      {"measurement": "Serum TBIL", "setting": "[3]; [11]", "value": "7.48 ± 1.64", "unit": "µM"},
      {"measurement": "Serum BUN", "setting": "[3]; [11]", "value": "9.83 ± 1.43", "unit": "mM"},
      {"measurement": "Serum ALT", "setting": "[3]; [11]", "value": "357.67 ± 176.92", "unit": "U/L"},
      {"measurement": "Serum AST", "setting": "[3]; [11]", "value": "602.33 ± 309.33", "unit": "U/L"},
      {"measurement": "Nephrotoxicity", "setting": "[3]; infected treated mice, judged from BUN", "value": "without observable nephrotoxicity"},
      {"measurement": "IC50", "setting": "[4]", "value": "23.2 ± 1.43", "unit": "µM"},
      {"measurement": "Tegumental damage (SEM), female adult worms", "setting": "adult S. japonicum worms; female worms", "value": "full-thickness sucker ulceration with stromal collapse, atrophic transformation with coalescing vesicles, and advanced tissue disintegration with tegumental wrinkling"},
      {"measurement": "Tegumental damage (SEM), male adult worms", "setting": "adult S. japonicum worms; male worms", "value": "complete spine ablation in gynecophoric canals, suctorial constriction, and muscular layer protrusion through disrupted tegument"},
      {"measurement": "LD50", "setting": "healthy mice", "value": ">2,000 mg/kg"},
      {"measurement": "LogLD50", "setting": "healthy mice", "value": ">3.30"},
      {"measurement": "LD50", "setting": "Acute oral toxicity", "value": 1400, "unit": "mg/kg"},
      {"measurement": "IC50", "setting": "[5]", "value": "43.8 ± 2.53", "unit": "µM"}
    ]},
    {"molecule": "O=C(Nc1ccc(Cl)c(Cl)c1)Nc1ccc(Cl)c(Cl)c1", "note": "[MMV665852, reference compound]", "values": [
      {"measurement": "mortality at 100 µM", "setting": "[1]; [6]", "value": 100, "unit": "%"},
      {"measurement": "mortality at 100 µM", "setting": "[1]; [7]", "value": 100, "unit": "%"},
      {"measurement": "mortality at 100 µM", "setting": "[1]; [8]", "value": 100, "unit": "%"},
      {"measurement": "LC50", "setting": "[1]; 72 h", "value": "12.5 ± 2.36", "unit": "µM"},
      {"measurement": "mortality at 100 µM", "setting": "[1]; [9]", "value": 100, "unit": "%"},
      {"measurement": "Number of worms, Adult", "setting": "[2]", "value": 36},
      {"measurement": "Worm burden reduction (WBR), Juvenile", "setting": "[2]", "value": 20, "unit": "%"},
      {"measurement": "Number of worms, Juvenile", "setting": "[2]", "value": 32},
      {"measurement": "In vivo antischistosomal efficacy (worm burden reduction)", "setting": "Schistosoma mansoni", "value": "minimal antischistosomal efficacy"}
    ]}
  ]
}
